Measured values from patent US20230270712A1, “NOBILETIN COMPOSITIONS AND METHODS FOR THE TREATMENT AND PREVENTION OF COVID-19 AND RELATED PATHOLOGIES” (CAS PROPERTIES, LLC, priority 2020, published 2023).
Read-outs that look alike come from different tables or passages of the source.

Experiments:
[1] = target: MMP-9 (Homo sapiens, UniProt P14780); conditions: cited from earlier work
[2] = test system: TNF-α; conditions: cited from earlier work
[3] = target: MMP-3 (Homo sapiens, UniProt P08254); conditions: cited from earlier work
[4] = bioavailability and tissue penetration; conditions: in vivo
[5] = test system: enterovirus 71; conditions: cited from earlier work
[6] = test system: natural killer (NK) cells; conditions: cited from earlier work
[7] = test system: hepatitis C virus; conditions: cited from earlier work
[8] = test system: induced lung damage; conditions: acute lung injury research model, dose-dependent; cited from earlier work
[9] = test system: toll-like receptor (TLR) 2+TLR4; conditions: cited from earlier work
[10] = test system: 5′ adenosine monophosphate-activated protein kinase (AMPK); conditions: cited from earlier work
[11] = target: MMP-2 (Homo sapiens, UniProt P08253); conditions: cited from earlier work
[12] = test system: MCP-1; conditions: cited from earlier work
[13] = test system: IL1-α; conditions: cited from earlier work
[14] = target: COX-2 (Homo sapiens, UniProt P35354); conditions: cited from earlier work
[15] = test system: lung function; experiment: lung function in subjects having severe pneumonia; assay type: in vivo; conditions: including from COVID-19
[16] = test system: TIMP-1; conditions: cited from earlier work
[17] = test system: leukocyte infiltration into inflamed tissue; conditions: in vivo; cited from earlier work
[18] = test system: chikungunya (CHIKV); conditions: cited from earlier work
[19] = test system: IL-6; conditions: cited from earlier work
[20] = target: MMP-1 (Homo sapiens, UniProt P03956); conditions: cited from earlier work
[21] = test system: platelet aggregation; conditions: cited from earlier work
[22] = test system: IL1-β; conditions: cited from earlier work
[23] = in vivo; cited from earlier work
[24] = higher concentration of nobiletin

Chain of COX-2 (P35354 18-604): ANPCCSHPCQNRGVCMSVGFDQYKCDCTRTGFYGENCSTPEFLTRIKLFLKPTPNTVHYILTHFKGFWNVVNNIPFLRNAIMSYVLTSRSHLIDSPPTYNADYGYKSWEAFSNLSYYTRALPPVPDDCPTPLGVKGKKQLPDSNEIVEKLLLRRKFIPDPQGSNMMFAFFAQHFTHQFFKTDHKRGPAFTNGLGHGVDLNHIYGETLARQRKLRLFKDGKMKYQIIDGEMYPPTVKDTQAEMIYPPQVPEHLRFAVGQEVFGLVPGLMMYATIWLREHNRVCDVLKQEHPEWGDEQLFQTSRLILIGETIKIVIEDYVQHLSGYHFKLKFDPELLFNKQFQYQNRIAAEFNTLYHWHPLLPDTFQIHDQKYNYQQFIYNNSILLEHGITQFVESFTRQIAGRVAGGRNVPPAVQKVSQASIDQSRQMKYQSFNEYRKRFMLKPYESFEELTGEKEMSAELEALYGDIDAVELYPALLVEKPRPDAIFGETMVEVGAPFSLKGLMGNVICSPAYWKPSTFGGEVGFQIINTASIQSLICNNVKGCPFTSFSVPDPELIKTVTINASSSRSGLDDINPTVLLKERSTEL
Chain of MMP-1 (P03956 100-469, species assumed): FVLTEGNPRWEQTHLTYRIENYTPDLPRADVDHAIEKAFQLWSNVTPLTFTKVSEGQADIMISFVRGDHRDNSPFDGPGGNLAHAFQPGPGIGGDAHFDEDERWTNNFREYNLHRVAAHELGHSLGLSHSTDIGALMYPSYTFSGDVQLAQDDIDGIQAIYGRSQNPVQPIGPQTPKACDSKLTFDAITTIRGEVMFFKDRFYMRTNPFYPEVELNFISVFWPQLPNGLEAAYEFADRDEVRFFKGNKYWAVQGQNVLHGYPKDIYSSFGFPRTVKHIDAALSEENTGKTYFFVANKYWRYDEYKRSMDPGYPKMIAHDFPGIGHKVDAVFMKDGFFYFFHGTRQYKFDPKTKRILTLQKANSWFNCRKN
Chain of MMP-3 (P08254 100-477, species assumed): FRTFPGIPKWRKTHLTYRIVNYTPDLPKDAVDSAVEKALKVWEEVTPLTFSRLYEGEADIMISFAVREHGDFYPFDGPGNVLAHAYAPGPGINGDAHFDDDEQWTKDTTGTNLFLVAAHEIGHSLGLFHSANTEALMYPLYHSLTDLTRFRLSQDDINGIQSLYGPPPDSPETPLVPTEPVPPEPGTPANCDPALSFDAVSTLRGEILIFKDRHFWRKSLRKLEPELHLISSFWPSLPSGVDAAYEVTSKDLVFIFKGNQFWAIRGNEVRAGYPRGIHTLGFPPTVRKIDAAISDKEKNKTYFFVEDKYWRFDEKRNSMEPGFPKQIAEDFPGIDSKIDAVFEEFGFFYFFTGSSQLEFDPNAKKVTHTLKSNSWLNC
Chain of MMP-2 (P08253 110-660, species assumed): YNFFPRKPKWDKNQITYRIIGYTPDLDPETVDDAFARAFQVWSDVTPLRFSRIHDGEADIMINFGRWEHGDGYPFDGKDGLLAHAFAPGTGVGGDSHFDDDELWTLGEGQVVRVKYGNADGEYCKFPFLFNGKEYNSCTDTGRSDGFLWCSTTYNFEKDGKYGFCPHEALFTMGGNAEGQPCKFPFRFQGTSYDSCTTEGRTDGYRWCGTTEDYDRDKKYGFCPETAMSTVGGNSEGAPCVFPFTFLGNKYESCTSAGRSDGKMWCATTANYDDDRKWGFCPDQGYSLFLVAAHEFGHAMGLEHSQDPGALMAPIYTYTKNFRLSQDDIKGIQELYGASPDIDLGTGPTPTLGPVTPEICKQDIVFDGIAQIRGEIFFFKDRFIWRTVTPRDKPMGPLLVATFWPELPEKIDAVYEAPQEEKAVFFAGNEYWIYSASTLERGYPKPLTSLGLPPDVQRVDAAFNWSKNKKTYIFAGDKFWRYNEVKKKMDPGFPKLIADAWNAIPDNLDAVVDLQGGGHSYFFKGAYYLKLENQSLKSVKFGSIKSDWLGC
Chain of MMP-9 (P14780 94-707, species assumed): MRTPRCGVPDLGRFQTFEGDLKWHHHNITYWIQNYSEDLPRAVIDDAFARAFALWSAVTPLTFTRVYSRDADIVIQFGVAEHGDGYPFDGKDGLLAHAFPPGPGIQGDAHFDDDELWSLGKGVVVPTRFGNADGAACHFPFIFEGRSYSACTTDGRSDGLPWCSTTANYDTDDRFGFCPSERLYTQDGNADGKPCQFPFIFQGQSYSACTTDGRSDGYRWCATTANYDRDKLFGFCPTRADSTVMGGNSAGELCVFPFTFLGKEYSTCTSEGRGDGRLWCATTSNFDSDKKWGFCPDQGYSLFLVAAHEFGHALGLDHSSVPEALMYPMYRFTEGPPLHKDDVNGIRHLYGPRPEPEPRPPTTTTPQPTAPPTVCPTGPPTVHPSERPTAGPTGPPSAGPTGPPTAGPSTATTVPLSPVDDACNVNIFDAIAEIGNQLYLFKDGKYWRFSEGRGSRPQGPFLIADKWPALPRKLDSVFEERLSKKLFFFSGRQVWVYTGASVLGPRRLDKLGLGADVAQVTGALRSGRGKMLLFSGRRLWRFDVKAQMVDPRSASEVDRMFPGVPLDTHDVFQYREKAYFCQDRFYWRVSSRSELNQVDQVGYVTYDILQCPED

Question: Which results are given for `COc1ccc(-c2cc(=O)c3c(OC)c(OC)c(OC)c(OC)c3o2)cc1OC` [nobiletin, 5,6,7,8,3′,4′-hexamethoxyflavone]?
Answer: inhibition of MMP-9 [1]: inhibiting; inhibition of TNF-α [2]: significantly inhibiting; inhibition of MMP-3 [3]: inhibiting; relative bioavailability [4]: high relative bioavailability; tissue penetration [4]: high tissue penetration; anti-viral activity against enterovirus 71 [5]: direct anti-viral activity; anti-viral activity of NK cells [6]: potentiating; activity against hepatitis C virus [7]: significant activity; induced lung damage [8]: nearly eliminated lung damage; inhibition of TLR2+TLR4 [9]: significantly inhibiting; AMPK levels and activity [10]: increasing; inhibition of MMP-2 [11]: inhibiting; inhibition of MCP-1 [12]: significantly inhibiting; inhibition of IL1-α [13]: significantly inhibiting; inhibition of COX-2 (and its metabolite PGE2) [14]: inhibiting; lung function [15]: excellent ability to restore lung function; effect on TIMP-1 [16]: upregulating; leukocyte infiltration into inflamed tissue [17]: significantly reduces; inhibition of chikungunya (CHIKV) infection ([18]; at viral entry as well as during translation/replication state): inhibit chikungunya (CHIKV) infection; cell survival of virally infected cells [18, 24]: ~90%; increase in survival of virally infected cells [18, 24]: 6 fold; increase in survival of virally infected cells ([18]; lower concentration of nobiletin, cell survival without it <15%): 4 fold; inhibition of IL-6 [19]: significantly inhibiting; inhibition of MMP-1 [20]: inhibiting; platelet aggregation [21]: suppression of platelet aggregation; inhibition of IL1-β [22]: significantly inhibiting; anti-obesity effects [23]: weight loss, fat loss
